# Patent publication US20200087625A1, “METHODS FOR ISOLATING, EXPANDING AND ADMINISTERING CANCER SPECIFIC CD8+ T CELLS” (priority 2017, published 2020)
# Assays:
# 4T1-GLF cells = assay: In vivo imaging (IVIS) of lung tumor signals, 4T1-GLF; set-up: species or system BALB/c mice; details: 200 μg i.p. day -1; early phase 3 h and 6 h, late phase days 7, 10, 14
# Experimental: FIGS. 25A-25F. Innate immune cells, NK cells and dendritic cells are activated following 1V270 therapy and contribute to anti-metastatic effects (A-C) Systemic administration of 1V270 activates dendritic cells and increases CD8^+ cell recruitment in the lung draini lymph node. (A) BALB/c mice (n=S/group) were treated with 1V270 on day −1 and then tumor cells were i.v. administered on day 0. Seven days later, mediastinal lymph node (mLN) cells were stained for dendritic cells (DC; CD45^+CD11c^+MHC classll^+). (B) DCs were further stained for CD80 and CD86. […] Tumor signals were quantified by IVIS. […] On the next day, lung cells were stained for NK markers (CD45^+[…] NKp46^+CD49^+) and analyzed by flow cytometry. […] Tumor signals were analyzed as described above. […]
# (§1) GFP and luciferase (GLF)-expressing tumor cells (2×10^4 of 4T1-GLF, 5×10^5 of B16-GLF, and […] of LLC-GLF) were i.v. injected into BALB/c mice for 4T1 models, BG-albino or wild-type C57BU6 for B16 melanoma or LLC models). […] Image data were acquired by 1 Ss exposure using the IVIS Spectrum and analyzed using the Living Image software, version 4.5.2 (Perkin Elmer, Waltham, Mass.). We confirmed that the tumor signals in the lungs at day 10 correlated with the number of lung metastasis determined on day 21, as well as the overall survival (Supplemental figures 10). […]
# LLC-GLF cells = assay: IV metastasis model of Lewis lung carcinoma (LLC); assay type: in vivo, mice; details: systemic 1V270 day -1
# Experimental: FIGS. 27A-27D. […] Therapeutic effects of 1V270 were evaluated in IV metastatic models of 816 melanoma (A, B) and LLC (C, D). BG-albino mice (n=B-10) (A, C), C57BL6 wild type mice (n=15-20) (B and D), were i.p. administered with 200 μg 1V270 or vehicle!iNext day, 5×10^5 B16-GLF cells (A) or 1×10^5 LLC-GLF cells (c) were i.v. administered (A,C). The tumor signals were quantified by IVIS at day 14. […] (B,D) The mice were monitored daily and were euthanized upon reaching the criteria according to UCSD IACUC guidelines. The survival data were analyzed by Log-Rank test. Data were pooled from 2 independent experiments showing similar results and were analyzed by Living Image® software. […] Statistical differences were analyzed by the Mann-Whitney U test comparing 1V270 treatment groups against the vehicle. **P<0.05.
# as §1
structure (smiles),measurement,setting,value
CCCCCCCCC=CCCCCCCCC(=O)OCC(COP(=O)(O)OCCNC(=O)c1ccc(Cn2c(=O)[nH]c3c(N)nc(OCCOC)nc32)cc1)OC(=O)CCCCCCCC=CCCCCCCCC (stereo not drawn) [1V270],lung tumor signals (IVIS),4T1-GLF cells,significantly suppressed the tumor signals
same,lung metastasis (IVIS tumor signal),"LLC-GLF cells; LLC-GLF, day 14",inhibited lung metastasis by day 14
same,mouse survival,LLC-GLF cells; LLC,prolonged mouse survival
